The test has as its target T1, GSK-3β (Homo sapiens, UniProt P49841).
T1 construct: gene GSK3B
Nature of the test: caliper mobility shift kinase assay with peptide FAM-P15 and ATP. The test is classed as biochemical.

T1 sequence (P49841 whole entry): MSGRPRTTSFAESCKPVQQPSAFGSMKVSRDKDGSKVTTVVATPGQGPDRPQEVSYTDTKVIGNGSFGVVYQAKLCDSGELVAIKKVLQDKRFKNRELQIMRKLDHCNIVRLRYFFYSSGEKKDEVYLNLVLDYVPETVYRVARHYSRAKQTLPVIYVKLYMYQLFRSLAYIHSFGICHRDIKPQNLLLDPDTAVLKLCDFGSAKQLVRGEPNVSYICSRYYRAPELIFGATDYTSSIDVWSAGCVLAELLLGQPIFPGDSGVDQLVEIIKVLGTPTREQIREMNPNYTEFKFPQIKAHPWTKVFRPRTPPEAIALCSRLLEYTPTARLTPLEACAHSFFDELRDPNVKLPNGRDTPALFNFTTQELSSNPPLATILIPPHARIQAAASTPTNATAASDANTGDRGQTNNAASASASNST

Take `Oc1cc(-c2c[nH]c3ncc(-c4ccc(CNc5ccncc5)cc4)cc23)cc2cccnc12` [B10, 6-(5-(4-((pyridin-4-ylamino)methyl)phenyl)-1H-pyrrolo[2,3-b]pyridin-3-yl)quinolin-8-ol]: the IC50 is 66 ± 2.5 nM.

As usually defined, the IC50 is the midpoint of a concentration-inhibition curve.

The values above are taken from publication PMC7140427, “A Unique GSK-3β inhibitor B10 Has a Direct Effect on Aβ, Targets Tau and Metal Dyshomeostasis, and Promotes Neuronal Neurite Outgrowth” (Cells, 2020).
